Test systems include RPMI-8226; A498; UACC-257; SN12C; RXF 393; ACHN; OVCAR-3; EKVX; SR; NCI/ADR-RES; MDA-N; PC-3; NCI-H522; NCI-H23; M14; TK-10; MOLT-4; KM12; OVCAR-8; NCI-H460.
Common to all, as to assay: NCI tumour cell line growth inhibition, 48 h

Structures are written as SMILES.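 Cultured in 96-well plates, cells were exposed to test compound for 48 hours across five concentrations. GI50: concentration for 50% inhibition of growth.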 The source made the active and inactive calls. Cut-off read from the data, not from the text of the source: active = GI50 up to about 1.1 µM and inactive = higher.

For the compound `Oc1c(Br)cc(Br)cc1CN(Cc1cc(Br)cc(Br)c1O)C1CCCCC1`, the GI50 in the assay with RPMI-8226 was 30.2 µM (inactive); in the assay on A498 it was 26.7 µM (inactive); with UACC-257 it was 19.5 µM (inactive); with SN12C it was 33.2 µM (inactive); in the assay on RXF 393, 31.3 µM (inactive); in the assay on ACHN, 31.1 µM (inactive). Further, the GI50 in the assay on OVCAR-3 is 15.1 µM (inactive); in the assay on EKVX, 30.5 µM (inactive); in the assay with SR, 32.4 µM (inactive); with NCI/ADR-RES, 39.9 µM (inactive); in the assay on MDA-N, 35.9 µM (inactive); in the assay on PC-3, 21.1 µM (inactive). Also, the GI50 in the assay with NCI-H522 is 15.3 µM (inactive); in the assay on NCI-H23, 23.2 µM (inactive); in the assay on M14 it was 34.3 µM (inactive); in the assay on TK-10 it was 26.4 µM (inactive); with MOLT-4, 43.4 µM (inactive); in the assay with KM12, 31.9 µM (inactive). The GI50 with OVCAR-8 is 31.1 µM (inactive).
Turning to `Cc1ccc(O)c(-c2cc(-c3cccc(Br)c3)on2)c1`, the GI50 with RPMI-8226 is 25.2 µM (inactive); in the assay with A498, 68.9 µM (inactive); in the assay with UACC-257, 48.8 µM (inactive); in the assay on NCI-H460, 29.1 µM (inactive); with SN12C it was 23.8 µM (inactive); in the assay with RXF 393, 17.3 µM (inactive). In addition, the GI50 was 35.6 µM (inactive) in the assay on ACHN; 19.1 µM (inactive) with OVCAR-3; 34.4 µM (inactive) in the assay with EKVX; 25.1 µM (inactive) in the assay on SR; 31.8 µM (inactive) in the assay with NCI/ADR-RES; 25.6 µM (inactive) in the assay with MDA-N. Besides, the GI50 with PC-3 was 45.6 µM (inactive); in the assay on NCI-H23 it was 37.1 µM (inactive); in the assay with M14, 36.8 µM (inactive); with TK-10 it was 21.9 µM (inactive); in the assay on MOLT-4 it was 20.8 µM (inactive); in the assay on KM12 it was 20.3 µM (inactive). Also, the GI50 with OVCAR-8 is 25.8 µM (inactive).
On to `COc1ccc2c(cnc3c4cc(OC)c(OC)cc4ccc23)c1`, for which the GI50 with A498, in the assay with UACC-257, in the assay on NCI-H460, in the assay on SN12C, with RXF 393 and in the assay with ACHN was > 100 µM (inactive) in each case. For the same compound, the GI50 in the assay with OVCAR-3, in the assay with EKVX, with SR, in the assay with NCI/ADR-RES, in the assay on MDA-N and in the assay on PC-3 was > 100 µM (inactive) throughout. Also, the GI50 in the assay with NCI-H522, in the assay with NCI-H23, with M14, with TK-10, in the assay with MOLT-4 and in the assay on KM12 was > 100 µM (inactive) in each case. The GI50 with OVCAR-8 was > 100 µM (inactive).
As for `CCSSCS(C)(=O)=O`, the GI50 in the assay on A498 is 32.3 µM (inactive); in the assay with UACC-257 it was 21.3 µM (inactive); in the assay on NCI-H460, 33.5 µM (inactive); with SN12C it was 24.8 µM (inactive); with RXF 393 it was 22.1 µM (inactive); with ACHN, 30.5 µM (inactive). In addition, the GI50 with OVCAR-3 was 26.5 µM (inactive); in the assay with EKVX it was 55.1 µM (inactive); in the assay on SR it was 12.9 µM (inactive); in the assay with NCI/ADR-RES, 31.8 µM (inactive); with MDA-N, 10.5 µM (inactive); in the assay on PC-3, 40 µM (inactive). For the same compound, the GI50 in the assay on NCI-H522 was 18.9 µM (inactive); with NCI-H23 it was 32.9 µM (inactive); in the assay on M14, 20.4 µM (inactive); in the assay on TK-10, 36.3 µM (inactive); in the assay on MOLT-4, 0.975 µM (active); with KM12, 61.7 µM (inactive). In addition, the GI50 in the assay with OVCAR-8 is 21.6 µM (inactive).
On to `O=c1oc2c(Br)c(O)c(Br)cc2c2ccccc12`, for which the GI50 in the assay with RPMI-8226 is 27 µM (inactive); with A498, 25.8 µM (inactive); in the assay with UACC-257, 18 µM (inactive); in the assay on NCI-H460 it was 24 µM (inactive); with SN12C it was 26.5 µM (inactive); with RXF 393, 38.6 µM (inactive). For the same compound, the GI50 in the assay on ACHN is 30.8 µM (inactive); with OVCAR-3 it was 16.5 µM (inactive); in the assay on EKVX it was 23.2 µM (inactive); with SR, 23.2 µM (inactive); with NCI/ADR-RES it was 12.2 µM (inactive); in the assay on MDA-N, 31.5 µM (inactive). Besides, the GI50 is 21 µM (inactive) in the assay on PC-3; 15.8 µM (inactive) in the assay on NCI-H522; 15.6 µM (inactive) with NCI-H23; 31.9 µM (inactive) in the assay on M14; 34.9 µM (inactive) with TK-10; 27.4 µM (inactive) in the assay on MOLT-4. In the assay on OVCAR-8, the GI50 was 33.6 µM (inactive).
With `O=[N+]([O-])c1ccc(/N=N/c2c(O)ccc3cc(S(=O)(=O)O)cc(S(=O)(=O)O)c23)cc1`, the GI50 in the assay with RPMI-8226, with A498, in the assay with UACC-257, in the assay with SN12C, in the assay on RXF 393 and with ACHN was > 100 µM (inactive) in each case. The GI50 with OVCAR-3, in the assay with EKVX, with SR, in the assay with NCI/ADR-RES, in the assay with MDA-N and with PC-3 was > 100 µM (inactive) in each case. Further, the GI50 in the assay on NCI-H522, in the assay with NCI-H23, with M14, in the assay with TK-10, in the assay with MOLT-4 and with KM12 was > 100 µM (inactive) in each case. Also, the GI50 with OVCAR-8 was > 100 µM (inactive).
On to `O=C1/C(=C/c2ccc(O)cc2)CC/C1=C\c1ccc(O)cc1`, for which the GI50 with RPMI-8226 was 49.3 µM (inactive); in the assay on A498, > 33 µM (inactive); in the assay on UACC-257 it was > 100 µM (inactive); in the assay with NCI-H460, 44.7 µM (inactive); with SN12C it was > 64.6 µM (inactive); in the assay on RXF 393, > 100 µM (inactive). Further, the GI50 was 6.31 µM (inactive) in the assay on ACHN; > 100 µM (inactive) in the assay on OVCAR-3; 99.8 µM (inactive) in the assay with EKVX; 3.37 µM (inactive) in the assay with SR; 28.3 µM (inactive) in the assay with NCI/ADR-RES; > 100 µM (inactive) with MDA-N. The GI50 with PC-3 was 59.6 µM (inactive); in the assay with NCI-H522, 49.4 µM (inactive); in the assay on NCI-H23, > 100 µM (inactive); in the assay on M14 it was > 100 µM (inactive); in the assay with TK-10, > 100 µM (inactive); in the assay on MOLT-4, 7.14 µM (inactive). In addition, the results for the GI50 with KM12 and in the assay with OVCAR-8 were > 100 µM (inactive) and > 81.5 µM (inactive), respectively.
Turning to `COC1=C(Br)[C@H](O)[C@@]2(C=C1Br)CC(C(=O)NCCCCCNC(=N)N)=NO2` [APLYSINAMISINE II], the GI50 in the assay with RPMI-8226, in the assay on A498, with UACC-257, with NCI-H460, in the assay on SN12C and in the assay on RXF 393 was > 10 µM (inactive) each time. Also, the GI50 with ACHN is > 10 µM (inactive); in the assay on OVCAR-3, > 10 µM (inactive); in the assay on SR, 6.87 µM (inactive); with NCI/ADR-RES, > 10 µM (inactive); in the assay with MDA-N it was > 10 µM (inactive); with PC-3, > 10 µM (inactive). Further, the GI50 in the assay on NCI-H522, in the assay with NCI-H23, in the assay on M14, with TK-10, with MOLT-4 and in the assay on KM12 was > 10 µM (inactive) throughout. Moreover, the GI50 in the assay with OVCAR-8 was > 10 µM (inactive).

The values above are taken from ChEMBL document CHEMBL1201862, “PubChem BioAssay data set” (2004).
